Reference: ChEMBL document CHEMBL1137047, “Induction of G2/M cell cycle arrest and apoptosis by a benz[f]indole-4,9-dione analog in cultured human lung (A549) cancer cells” (Bioorg Med Chem Lett, 2004)
pIC50: −log10 of the molar value.

Legend:
Type in all cases: functional, cell-based
Settings in all cases: Homo sapiens
Col2 = experiment: inhibitory activity against growth of cultured Col2 cell line
SNU-638 = experiment: inhibitory activity against growth of cultured SNU-638 cell line
A549 = experiment: Inhibitory activity against growth of cultured A-549 cell line

In the case of `CCOC(=O)c1c2c(n(C)c1N)C(=O)c1ccccc1C2=O`, the pIC50 (Col2) was 6.47, the pIC50 (SNU-638) was 5.77 and the pIC50 (A549) was 6.20.
